Measured values from patent US4213895A, “N-[N-[N-[ N-[N-(5-Oxo-L-prolyl)-L-histidyl]-L-tryptophyl]-L-seryl]-L-tyrosyl]glycin e azide, an intermediate of the releasing agent of luteinizing hormone (LW) and of follicle stimulating hormone (FSH)” (American Home Products Corporation, priority 1979, dated 1980).

Tests used:
LH- and FSH-releasing [1] = assay: LH- and FSH-releasing activity, radioimmunoassay described by Niswender et al.; details: acid addition salt
Description: (§1) Exp. Biol. Med., 128, 807 (1968).

[2] = tested on: induction of ovulation in the hamster; assay: Induction of ovulation in the hamster (Arimura et al., Science 174, 511); type: in vivo; details: acid addition salt
Description: as §1

[3] = tested on: induction of ovulation in the rat; assay: Induction of ovulation in the rat, modification of the assay of Arimura et al., Endocrinology 80, 515; type: in vivo; details: acid addition salt
Description: as §1

LH- and FSH-releasing [4] = assay: Bioassays, not specified, comparison with the natural hormone; details: diacetate salt
Description: Said last-named compound (VI) is condensed by means of the azide method via the azide, N-[N-[N-[N-[N-(5-oxo-L-prolyl)-L-histidyl]-L-tryptophyl]-L-seryl]-L-tyrosyl]glycine azide, with N-[N-[N-(N-leucyl)-L-arginyl]-L-prolyl]glycinamide diacetate (V) to yield the desired decapeptide 5-oxo-L-prolyl-L-histidyl-L-tryptophyl-L-seryl-L-tyrosylglycyl-L-leucyl-L- arginyl-L-prolylglycinamide (I) which is isolated in the form of its diacetate salt. The latter salt may be converted, if desired, into a different acid addition salt, e.g. a salt with a pharmaceutically acceptable acid, by treatment with the appropriate ion exchange resin in the manner described by Boissonas et al., Helv. Chim. Acta 43, 1349 (1960). Suitable ion exchange resins are strongly basic anion exchange resins, for example those listed in Greenstein and Winitz "Chemistry of the Amino Acids", Hohn Wiley and Sons, Inc., New York and London 1961, Vol. 2, p. 1456. Basically substituted cross-linked polystyrene resins such as Amerlite IRA-400 or IRA-410 are preferred. The above diacetate may also be converted to a salt of low solubility in body fluids by treatment with a slightly water-soluble pharmaceutically acceptable acid. The acid addition salts of the LH- and FSH-releasing hormone produced by the process of this invention with pharmacologically acceptable acids are biologically fully equivalent to the natural hormone. […]

## CC(C)C[C@H](NC(=O)CNC(=O)[C@H](Cc1ccc(O)cc1)NC(=O)[C@H](CO)NC(=O)[C@H](Cc1c[nH]c2ccccc12)NC(=O)[C@H](Cc1c[nH]cn1)NC(=O)[C@@H]1CCC(=O)N1)C(=O)N[C@@H](CCCNC(=N)N)C(=O)N1CCC[C@H]1C(=O)NCC(N)=O [I, 5-oxo-L-prolyl-L-histidyl-L-tryptophyl-L-seryl-L-tyrosylglycyl-L-leucyl-L-arginyl-L-prolylglycinamide]
LH- and FSH-releasing [1]
  LH- and FSH-releasing activity relative to the natural hormone: as active as the natural hormone
[2]
  activity in induction of ovulation relative to the natural hormone: equally active
[3]
  activity in induction of ovulation relative to the natural hormone: equally active
LH- and FSH-releasing [4]
  potency in bioassays relative to the natural product: as potent as the latter
